Read-outs that look alike come from different tables or passages of the source. Marks after values point to notes of the source that are not given here.
Columns and labels:
[1] = test system: OV-3 (ovarian cancer) cells; test: MTT in vitro cytotoxicity, OV-3; format: cell-based, human; settings: read-out: Concentration to inhibit 50% cell growth (IC50 nM ± SD), OV-3
Experimental: (§1) In vitro cytotoxicity was measured with MTT. Cell suspension was prepared using cells in good condition and seeded at 200 μl/well on a 96 well plate before culturing for 24 hours in a temperature-controlled CO2 incubator. The test drug was added at 20 μl/well and cultured for 48 hours. MTT was added to the 96 well plate at 20 ul/well and allowed to react for 4 hours in the incubator. The supernatant was removed and DMSO was added at 20 μl/well. Cytotoxicity was determined by the absorbance measured by Enzyme-linked immunosorbent assay at a wavelength of 570 nm.

U87 (glioma) cells = test: MTT in vitro cytotoxicity, U87; format: cell-based, human; settings: read-out: Concentration to inhibit 50% cell growth (IC50 nM ± SD), U87
Experimental: as §1

[2] = test system: BX-PC3 (pancreatic cancer) cells; test: MTT in vitro cytotoxicity, BX-PC3; format: cell-based, human; settings: read-out: Concentration to inhibit 50% cell growth (IC50 nM ± SD), BX-PC3
Experimental: as §1

[3] = test system: A549 (non-small cell lung cancer) cells; test: MTT in vitro cytotoxicity, A549; format: cell-based, human; settings: read-out: Concentration to inhibit 50% cell growth (IC50 nM ± SD), A549
Experimental: as §1

[4] = test system: U87, BX-PC3, HT-29, OV-3 and A549 cell lines; test: MTT in vitro cytotoxicity, five cell lines together (mean / overall); settings: for in vitro activity / cytotoxicity (in words): MTT, A549, HT-29, OV-3, U87, BX-PC3
Experimental: as §1

[5] = test system: HT-29 (colon cancer) cells; test: MTT in vitro cytotoxicity, HT-29; format: cell-based, human; settings: read-out: Concentration to inhibit 50% cell growth (IC50 nM ± SD), HT-29
Experimental: as §1

[6] = test system: intra-cerebrally transplanted U87 human glioma brain tumor; test: Therapeutic effect on intra-cerebrally transplanted U87 brain tumor; format: in vivo, mice
Text: Methods: female nude mice were used for the experiments.
Dosing regimen: once every two days, a total of four times; route of administration: intravenous injection at the tail vein. Mice died from brain tumor after inoculation with 2×10^5 cells. #: Comparing CPT1 with irinotecan and gimatecan.

[7] = test system: SK-OV3 human ovarian carcinoma xenograft; test: Therapeutic effect on nude mice with SK-OV3 xenograft; format: in vivo; parameters: Tumor inhibition: unit not given here; settings: for Tumor inhibition: 16 days after treatment; for Tumor inhibition / Maximum change in weight (%): iv; for Tumor inhibition / T.S. (mm3) D 16 / T.S. (mm3) D 0: SK-OV3; for T.S. (mm3) D 16: tumor size 16 days after treatment, iv tail vein; for T.S. (mm3) D 0: tumor size at day 0 (baseline)
Experimental: (§2) Methods: female nude mice were used for the experiments. Transplantation of tumors: Actively growing tumor tissues were cut into small pieces with sterilized scissors and each mouse was inoculated with 50 mg of the tumor tissue. Treatment began on days 6-10 after tumor transplantation when the weight of the tumor was around 300 mg. The nude mice were weighed and the tumor size was measured every other day. Transplanted tumors: human breast cancer (MX-1), human non-small cell lung cancer (A549), human ovarian carcinoma (SK-0V3), human colon carcinoma (HT29), human pancreatic cancer (BX-PC-3).

[8] = test system: MX-1 human breast cancer xenograft; test: Therapeutic effect on nude mouse with MX-1 xenograft; format: in vivo; settings: for Tumor disappear: animals with tumor not detectable visually, observed for 60 days; for Tumor disappear / Maximum change in weight (%): iv; for T.S. (mm3) D 16: tumor size 16 days after treatment, iv tail vein; for T.S. (mm3) D 16 / T.S. (mm3) D 0: MX-1; for T.S. (mm3) D 0: tumor size at day 0 (baseline)
Experimental: as §2
B: Tumor disappearance: tumor could not be detected visually 60 days after the experiment

[9] = Determination of equitoxic dose (maximum tolerated dose); format: in vivo, nude mice; settings: q2dx4, decrease in weight of around 15%; for MTD: nude, mouse, in vivo, intravenous, read-out: Experimentally determined dosage at the same level of toxicity (maximum tolerated dose)
Experimental: (§3) CP1 had better solubility and stability than CPT2-10.
Dosing regimen: once every two days, a total of four times; route of administration: intravenous injection at the tail vein. # At 16 days after treatment. […] The doses used were those that were determined experimentally to cause the same toxicity of weight decrease by 12-15%. T.S: tumor size

[10] = Solubility and stability comparison; format: physicochemical
Text: as §3

[11] = test system: a variety of transplanted tumors; settings: at maximum tolerated dose
Experimental: as §2

[12] = MTT, drug cultured 48 hours, OV-3
[13] = MTT, drug cultured 48 hours, U87
[14] = MTT, drug cultured 48 hours, BX-PC3
[15] = MTT, drug cultured 48 hours, A549
[16] = read-out: Concentration to inhibit 50% cell growth, mean (average concentration), mean over U87, BX-PC3, HT-29, OV-3, A549
[17] = MTT, drug cultured 48 hours, HT-29
[18] = inoculation with 2×10^5 U87 cells intra-cerebrally, iv, once every two days, four times
[19] = once every two days, four times
[20] = SK-OV3 nude mice, once every two days, four times
[21] = MX-1 nude mouse, once every two days, four times

| Compound | IC50 [1, 12] [nM] | IC50 (U87 (glioma) cells; [13]) [nM] | IC50 [2, 14] [nM] | IC50 [3, 15] [nM] | IC50 [4, 16] [nM] | IC50 [5, 17] [nM] | Tumor inhibition [7, 19] | T.S. (mm3) D 16 [7, 19] [mm3] | T.S. (mm3) D 0 [7] [mm3] | in vitro activity / cytotoxicity (in words) [4] | Tumor disappear [8, 19] | T.S. (mm3) D 16 [8, 19] [mm3] | T.S. (mm3) D 0 [8] [mm3] | also measured |
| --- | --- | --- | --- | --- | --- | --- | --- | --- | --- | --- | --- | --- | --- | --- |
| 9-t-butyloxyethyloxime-10-hydroxy-camptothecin [CPT2] | 16.1 ± 2.5 | 2.9 ± 1.1 | 5.1 ± 2 | 14.1 ± 1.2 | 9.1 | 7.1 ± 1.6 |  |  |  |  |  |  |  |  |
| CCC1(O)C(=O)OCc2c1cc1n(c2=O)Cc2cc3c(CC=NOC(C)(C)C)c(OC(=O)N4CCC(N5CCCCC5)CC4)ccc3nc2-1 (stereo not shown) [CPT1, 9-t-butyloxyethyloxime-10-[(4′-piperidinylpiperidinyl)carbonyloxy]-camptothecin] |  |  |  |  |  |  | 80.4 | 358 ± 34 | 236 ± 34 | do not have significant activities in vitro | 6/6 | 0 | 356 ± 51 | Survival time compared with irinotecan and gimatecan ([6]; P<0.05): increased significantly; Average survival time (days) [6, 18]: 26.4 ± 1.2# days; Maximum change in weight (%) ([7]; mouse, in vivo): −12%; Maximum change in weight (%) ([8]; mouse, in vivo): −13%; Experimentally determined dosage at the same level of toxicity (maximum tolerated dose) [9]: 55 mg/kg; Solubility compared with CPT2-10 [10]: better; Stability compared with CPT2-10 [10]: better; Therapeutic effect against transplanted tumors (in words) [11]: good therapeutic effect |
| CCC1(O)C(=O)OCc2c1cc1n(c2=O)Cc2cc3c(CC=NOC(C)(C)C)c(F)ccc3nc2-1 (stereo not shown) [CPT3, 9-t-butyloxyethyloxime-10-fluoro-camptothecin] | 10.1 ± 2.1 | 2.1 ± 1 | 3.1 ± 1.5 | 11.2 ± 1 | 7.1 | 9.1 ± 3.2 |  |  |  | significant cytotoxicity |  |  |  |  |
| CCC1(O)C(=O)OCc2c1cc1n(c2=O)Cc2cc3c(CC=NOC(C)(C)C)c(OC(=O)C(N)Cc4ccccc4)ccc3nc2-1 (stereo not shown) [CPT4, 9-t-butyloxyethyloxime-10-phenylalanine-carbonyloxy-camptothecin] |  |  |  |  |  |  |  |  |  | do not have significant activities in vitro |  |  |  |  |
| CCC1(O)C(=O)OCc2c1cc1n(c2=O)Cc2cc3c(CC=NOC(C)(C)C)cccc3nc2-1 (stereo not shown) [CPT7, 9-t-butyloxyethyloxime-camptothecin] | 4.1 ± 0.4 | 1.5 ± 0.3 | 2.1 ± 1.2 | 5.5 ± 0.8 | 3.3 | 3.1 ± 1 |  |  |  | significant cytotoxicity |  |  |  |  |
| CCC1(O)C(=O)OCc2c1cc1n(c2=O)Cc2cc3c(CC=NOC(C)(C)C)c(OC(C)=O)ccc3nc2-1 (stereo not shown) [CPT8] | 23.1 ± 3.1 | 4.1 ± 1.7 | 7.1 ± 2.1 | 19.3 ± 2.2 | 12.9 | 11.1 ± 1.8 |  |  |  | significant cytotoxicity |  |  |  |  |
| CCC1(OC(=O)C(N)Cc2ccccc2)C(=O)OCc2c1cc1n(c2=O)Cc2cc3c(CC=NOC(C)(C)C)c(OC(=O)N4CCC(N5CCCCC5)CC4)ccc3nc2-1 (stereo not shown) [CPT9, 9-t-butyloxyethyloxime-10-[(4′-piperidinylpiperidinyl)carbonyloxy]-20-phenylalanine carbonyloxy-camptothecin] |  |  |  |  |  |  |  |  |  | do not have significant activities in vitro |  |  |  |  |
| CC[C@@]1(O)C(=O)OCc2c1cc1n(c2=O)Cc2c-1nc1ccccc1c2/C=N/OC(C)(C)C [Gimatecan] |  |  |  |  |  |  | 68.4 | 578 ± 61 | 203 ± 33 |  | 6/6 | 0 | 328 ± 65 | Average survival time [6, 18]: 23.1 ± 1.6 days; IC50 ([1]; Homo sapiens, 48 h): 3.1 ± 2.2 nM; IC50 (U87 (glioma) cells; Homo sapiens, U-87 MG, 48 h): 0.6 ± 0.2 nM; IC50 ([2]; Homo sapiens, BXPC-3, 48 h): 1.5 ± 0.8 nM; Maximum change in weight (%) [7, 20]: −12%; IC50 ([3]; Homo sapiens, A549, 48 h): 4.7 ± 0.2 nM; IC50 ([4]; Homo sapiens, read-out: Concentration to inhibit 50% cell growth, mean (average concentration), mean over U87, BX-PC3, HT-29, OV-3, A549): 2.7 nM; Maximum change in weight (%) [8, 21]: −13%; MTD [9]: 1 mg/kg; IC50 ([5]; Homo sapiens, HT-29, 48 h): 3.6 ± 0.3 nM |
| CCc1c2c(nc3ccc(OC(=O)N4CCC(N5CCCCC5)CC4)cc13)-c1cc3c(c(=O)n1C2)COC(=O)[C@]3(O)CC [Irinotecan] |  |  |  |  |  |  | 75.3 | 451 ± 56 | 214 ± 26 |  | 6/6 | 0 | 361 ± 54 | Average survival time [6, 18]: 22.8 ± 1.4 days; Maximum change in weight (%) [7, 20]: −13%; Maximum change in weight (%) [8, 21]: −12%; MTD [9]: 55 mg/kg |
| CCc1c2c(nc3ccc(O)cc13)-c1cc3c(c(=O)n1C2)COC(=O)[C@]3(O)CC [SN38] | 17.1 ± 3.2 | 3.1 ± 1.1 | 6.8 ± 2.6 | 16.6 ± 1.9 | 10.5 | 8.7 ± 1.2 |  |  |  |  |  |  |  |  |
| CC[C@@]1(O)C(=O)OCc2c1cc1n(c2=O)Cc2cc3c(CN(C)C)c(O)ccc3nc2-1 [Topotecan] |  |  |  |  | 19.7 |  | 18.9 | 1478 ± 226 | 223 ± 43 |  | 2/6 | 124 ± 12 | 323 ± 47 | IC50 ([1]; Homo sapiens, 48 h): 21.1 ± 2.6 nM; IC50 (U87 (glioma) cells; Homo sapiens, U-87 MG, 48 h): 12.5 ± 3.2 nM; IC50 ([2]; Homo sapiens, BXPC-3, 48 h): 19.1 ± 3.7 nM; Maximum change in weight (%) [7, 20]: −12%; IC50 ([3]; Homo sapiens, A549, 48 h): 28.5 ± 3.9 nM; Maximum change in weight (%) [8, 21]: −14%; MTD [9]: 12 mg/kg; IC50 ([5]; Homo sapiens, HT-29, 48 h): 17.3 ± 4.2 nM |

From US9006439B2, “Camptothecin derivatives having anti-tumor activity” (priority 2011, dated 2015)
